Assay results from US20070167412A1, “HALOCOMBSTATINS AND METHODS OF SYNTHESIS THEREOF” (ARIZONA BOARD OF REGENTS, priority 2003, published 2007).
Values after ≈ are worked out from the molar mass of the structure shown.

Assays:
[1] = system: tubulin; experiment: inhibition of [3H]colchicine binding to tubulin; conditions: 1.0 μM tubulin, 5.0 μM [3H]colchicine, inhibitor at 1.0 μM, 10 minutes at 37° C.
Description: Tubulin polymerization was evaluated by turbidimetry at 350 nm using Beckman DU7400/7500 spectrophotometers as described in detail elsewhere. […] Varying concentrations of drug were preincubated with 10 μM:M ([…]) purified tubulin (See Hamel, E., et al., Separation of Active Tubulin and Microtubule-associated Proteins by Ultracentrifiigation and Isolation of a Component Causing the Formation of Microtubule Bundles, Biochemistry 1984, 23, 4173-4184). Samples were chilled on ice, GTP (0.4 mM) was added, and polymerization was followed at 30° C. The parameter measured was extent of the reaction after 20 minutes. Coichicine binding was measured as described in detail previously. Reaction mixtures contained 1.0 μM :M tubulin, 5.0:M, [^3H]colchicine (from Dupont), and inhibitor at 1.0 μM:M. Incubation was for 10 minutes at 37° C.

[2] = system: Colon KM20L2; experiment: human cancer cell growth inhibition, sulforhodamine B assay; assay type: cell-based; conditions: Homo sapiens, KM-20L2; Table I; 48 hours; read-out: Human cancer cell line inhibition (GI50) Colon KM20L2
Summary of the method: (§1)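 Following the standard NCI SRB assay, cultures were treated for 48 h before trichloracetic acid fixation and dye staining.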

[3] = system: Prostate DU-145; experiment: as above; assay type: cell-based; conditions: Homo sapiens, DU-145; Table I; 48 hours; read-out: Human cancer cell line inhibition (GI50) Prostate DU-145
Summary of the method: as §1

[4] = system: CNS SF268; experiment: as above; assay type: cell-based; conditions: Homo sapiens, SF-268; Table I; 48 hours; read-out: Human cancer cell line inhibition (GI50) CNS SF268
Summary of the method: as §1

[5] = system: Pancreas BXPC-3; experiment: as above; assay type: cell-based; conditions: Homo sapiens, BXPC-3; Table I; 48 hours; read-out: Human cancer cell line inhibition (GI50) Pancreas-a BXPC-3
Summary of the method: as §1

[6] = system: Lung-NSC NCI-H460; experiment: as above; assay type: cell-based; conditions: Homo sapiens, NCI-H460; Table I; 48 hours; read-out: Human cancer cell line inhibition (GI50) Lung-NSC NCI-H460
Summary of the method: as §1

[7] = system: Breast MCF-7; experiment: as above; assay type: cell-based; conditions: Homo sapiens, MCF7; Table I; 48 hours; read-out: Human cancer cell line inhibition (GI50) Breast adn MCF-7
Summary of the method: as §1

[8] = system: SW1736; experiment: human anaplastic thyroid carcinoma cell line inhibition; assay type: cell-based; conditions: Homo sapiens, SW-1736
Description: (§2) Inhibition of human cancer cell growth was assessed using the National Cancer Institute's standard sulforhodamine B assay. After 48 hours, the plates were fixed with trichloracetic acid, stained with sulforhodamine B and read with an automated microplate reader. A growth inhibition of 50% (GI50 or the drug concentration causing a 50% reduction in the net protein increase) was calculated from optical density data with Inmunosoft software. Inhibition of the mouse leukemia P388 cells was assessed in a 10% horse serum/Fisher medium soution for 24 hours, followed by a 48 hour incubation with serial dilutions of the compounds. Cell growth inhibition (ED50) was then calculated using a Z1 Becleman/Coulter particle counter.

[9] = system: KAT-4; experiment: as above; assay type: cell-based; conditions: Homo sapiens, KAT-4
Description: as §2

[10] = system: Micrococcus luteus; experiment: reference broth microdilution susceptibility assay; assay type: cell-based; conditions: Table III
Summary of the method: (§3)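 Following NCCLS guidance, the yeasts C. albicans and C. neoformans were assayed under M27-A, whereas M. luteus and E. coli were assayed under M7-A5, in each case by broth microdilution.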

[11] = system: Neisseria gonorrhoeae; experiment: reference broth microdilution susceptibility assay; assay type: cell-based; conditions: Table III
Summary of the method: (§4)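 Compounds are serially diluted in broth and tested for microbial susceptibility by the standard microdilution procedure. Bacteria are handled per approved standard M7-A5 and yeasts per approved standard M27-A.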

[12] = system: Escherichia coli; experiment: reference broth microdilution susceptibility assay; assay type: cell-based; conditions: Table III
Summary of the method: as §3

[13] = system: Enterobacter cloacae; experiment: reference broth microdilution susceptibility assay; assay type: cell-based; conditions: Table III
Summary of the method: as §4

[14] = system: Staphylococcus aureus; experiment: reference broth microdilution susceptibility assay; assay type: cell-based; conditions: Table III
Summary of the method: as §4

[15] = system: Cryptococcus neoformans; experiment: reference broth microdilution susceptibility assay; assay type: cell-based; conditions: Table III
Summary of the method: as §3

[16] = system: Streptococcus pneumoniae; experiment: reference broth microdilution susceptibility assay; assay type: cell-based; conditions: Table III
Summary of the method: as §4

[17] = system: Enterococcus faecalis; experiment: reference broth microdilution susceptibility assay; assay type: cell-based; conditions: Table III
Summary of the method: as §4

[18] = system: Stenotrophomonas maltophilia; experiment: reference broth microdilution susceptibility assay; assay type: cell-based; conditions: Table III
Summary of the method: as §4

[19] = system: Candida albicans; experiment: reference broth microdilution susceptibility assay; assay type: cell-based; conditions: Table III
Summary of the method: as §3

COc1ccc(/C=C\c2cc(I)c(OC)c(OC)c2)cc1O [Compound 14a, 3-Iodo-4,4′,5-trimethoxy-3′-hydroxy-z-stilbene]
Inhibition of colchicine binding % inhibition ± S.D. [1]: 84 ± 7% | GI50 [2]: 0.15 µg/mL (≈ 0.364 µM) | GI50 [3]: 0.00052 µg/mL (≈ 0.00126 µM) | GI50 [4]: 0.00035 µg/mL (≈ 0.000849 µM) | GI50 [5]: 0.11 µg/mL (≈ 0.267 µM) | GI50 [6]: 0.00019 µg/mL (≈ 0.000461 µM) | GI50 [7]: 0.00022 µg/mL (≈ 0.000534 µM) | GI50 [8]: 2.2 µg/mL (≈ 5.34 µM) | GI50 [9]: 0.089 to 0.14 µg/mL (≈ 0.216 to 0.34 µM) | Range of minimum inhibitory concentration, Micrococcus luteus [10]: 16 to 32 µg/mL | Range of minimum inhibitory concentration, Neisseria gonorrhoeae [11]: 16 to 32 µg/mL | Range of minimum inhibitory concentration, Escherichia coli [12]: * (no inhibition at 64 μg/ml) | Range of minimum inhibitory concentration, Enterobacter cloacae [13]: * (no inhibition at 64 μg/ml) | Range of minimum inhibitory concentration, Staphylococcus aureus [14]: * (no inhibition at 64 μg/ml) | Range of minimum inhibitory concentration, Cryptococcus neoformans [15]: 32 to 64 µg/mL | Range of minimum inhibitory concentration, Streptococcus pneumoniae [16]: 64 µg/mL | Range of minimum inhibitory concentration, Enterococcus faecalis [17]: * (no inhibition at 64 μg/ml) | Range of minimum inhibitory concentration, Stenotrophomonas maltophilia [18]: * (no inhibition at 64 μg/ml) | Range of minimum inhibitory concentration, Candida albicans [19]: * (no inhibition at 64 μg/ml)
